Test results published in publication PMC3586668 (PLoS ONE, 2013).
Like-named read-outs stand apart in the source and are kept apart here.

Tests used:
[1] = Polypeptide transport across 3-day Caco-2 monolayers (ELISA); format: in vitro ADME, Human; conditions: human, 3-day Caco-2, apical-to-basolateral, room temperature, gentle shaking, mean±SD n = 3, read-out: Apparent Permeability (Papp)
Protocol: (§1) Transport of three different macromolecular pharmaceutical peptides was studied across the Caco-2 monolayers at different loading concentrations. […] Different doses were selected for different polypeptides based upon the values reported in literature to not only approach therapeutic efficacy but also to provide a valid comparison with the results obtained in 21-day monolayer system. Polypeptides were incubated with Caco-2 monolayers for 5 hrs at room temperature with gentle shaking. TEER measurements were performed and samples were collected from basolateral chambers of the Caco-2 plates to determine total drug transport and apparent permeability at different concentrations.

Caco-2 monolayers [2] = experiment: as above; format: in vitro ADME, Human; conditions: 3-day Caco-2, apical-to-basolateral, room temperature, mean±SD n = 3; for Total amount transported to the basolateral side: 5 h
Protocol: as §1

rat jejunum = tested on: rat jejunum; set-up: method as in 2 sources, ref 33 = [33]; PMID 21501675; doi:10.1016/j.ijpharm.2011.04.003; 33 Woitiski CB , Sarmento B , Carvalho RA , Neufeld RJ , Veiga F ( 2011 ) Facilitated nanoscale delivery of insulin across intestinal membrane models . Int J Pharm 412 : 123 – 131 . 21501675 10.1016/j ||| ref 36 = [36]; PMID 10227707; doi:10.1023/a:1018819012405; 36 Sinko PJ , Lee YH , Makhey V , Leesman GD , Sutyak JP , et al ( 1999 ) Biopharmaceutical approaches for developing and assessing oral peptide delivery strategies and systems: in vitro permeability; conditions: cited from earlier work
Caco-2 monolayers [3] = experiment: Validation of 3-day Caco-2 transwell system: FITC-insulin and sulforhodamine-B transport (fluorescence); conditions: for Apparent Permeability (Papp) / % Transport in 5 hours / Cumulative amount transported to basolateral chamber: room temperature, fluorescence, mean±SD n = 3; for Apparent Permeability (Papp): gentle shaking; for Cumulative amount transported to basolateral chamber: after 5 h
Protocol: (§2) Human colorectal adenocarcinoma Caco-2 cell line (HTB-37) obtained from American Type culture Collection (ATCC) (Manassas, VA, USA) was used for all experiments. Cell lines were maintained as per the provider's protocol. Cell culture was performed in Hyclone® DMEM high glucose medium (Thermo Fisher Scientific, Pittsburgh, PA, USA) supplemented with 50 IU/ml of penicillin, 50 mg/L of streptomycin, and 100 ml/L of fetal bovine serum at 37°C in a humidity-controlled 5% CO2 cell culture incubator. Cells were split at a ratio of 1∶3 after reaching 90% confluence. All transwell experiments were performed with cells between 5th–14th passages due to possible phenotypic differences between cells from high and low passage intervals. Cells were cultivated for at least 2 passages before seeding onto transwell filter supports to stabilize the cell phenotype 12].
(§3) Transwell experiments were performed with slight modifications to the protocols provided by the manufacturer (BD Biosciences, Bedford, MA, USA). For the development of the transwell assay system for permeability experiments, Caco-2 cells were seeded onto fibrillar collagen coated polyethylene terephthalate (PET) filter supports (1 µm pore size) of BD Biocoat™ HTS Caco-2 assay system (BD Biosciences, Bedford, MA, USA) according to manufacturer's protocol with slight modifications. Briefly, Caco-2 cells were seeded onto the filter supports at a concentration of 200,000 cells/insert (6.6×10^5 cells/cm^2) using basal seeding medium (with MITO+ serum extender) provided in the HTS system, and were incubated in cell culture incubator (37°C, 5% CO2). Cells were fed from both sides using the Multiwell feeder tray. After 24 hrs, the feeding medium was replaced with MITO+ serum extender supplemented Entero-STIM medium, and growing monolayers were incubated as described earlier. Upon incubation for 48–72 hrs, Caco-2 cells developed a tight junction monolayer, integrity of which was determined by TEER measurements.
(§4) The integrity of Caco-2 monolayer was determined by measuring the transepithelial electrical resistance (TEER) of the cell monolayer grown on filter supports using Millicell-ERS electrical resistance measuring system (Millipore, Bedford, MA) using chopstick electrodes. Briefly, the Caco-2 inserts were transferred to a 24-well culture plate with 1400 µl medium in the feeding well, and 500 µl in culture inserts. The electrodes were immersed in a way that shorter electrode was in the insert and longer electrode in the outer well. […] Based on the literature, a resistance reading of 150–200 Ω.cm^2 was considered as indicative of a confluent Caco-2 monolayer with tight junctions.
(§5) Briefly, cells were pre-conditioned with basal seeding medium for 30 minutes before starting the experiment at 37°C. […] The basolateral chamber consisted 1400 µl of the same growth medium as per manufacturer's protocol. The plates were incubated for 5 hrs at room temperature with gentle shaking (5 rocks/minute on a rocker, so as to mimic intestinal peristaltic movement). TEER measurements were performed at predetermined time intervals (0. 0.25, 0.5, 1, 2, 3, and 5 hrs). At the same time-points, 100 µl samples were withdrawn from the basolateral chamber to quantify the total amount of FITC-ins/sulforhodamine-B transported across the monolayer. The withdrawn sample was immediately replaced with equivalent amount of the experimental medium.
(§6) The apparent permeability coefficients (Papp) of all polypeptides were calculated using the following equation 19]: [drawing 1]
(§7) Where dQ/dt is the amount of solutes transported across the Caco-2 barrier in time dt, C0 is the solute concentration in apical compartment at time zero, and A is the cross-sectional area of the epithelium in contact with apical solution. Total percent drug transport was calculated by dividing the cumulative amount of molecules transported with the original loading concentrations.

Caco-2 monolayers [4] = tested on: Caco-2 monolayers
Protocol: as §2, §3, §4, §5, §6, §7

[5] = apical loading 0.005 mg (5 µg/well)
[6] = apical loading 0.024 mg (24 µg/well)

Compound: CC(C)C[C@H](NC(=O)[C@H](CCCCN)NC(=O)CNC(=O)[C@H](CC(C)C)NC(=O)[C@@H](NC(=O)[C@@H]1CSSC[C@H](N)C(=O)N[C@@H](CO)C(=O)N[C@@H](CC(N)=O)C(=O)N[C@@H](CC(C)C)C(=O)N[C@@H](CO)C(=O)N[C@@H]([C@@H](C)O)C(=O)N1)C(C)C)C(=O)N[C@@H](CO)C(=O)N[C@@H](CCC(N)=O)C(=O)N[C@@H](CCC(=O)O)C(=O)N[C@@H](CC(C)C)C(=O)N[C@@H](Cc1c[nH]cn1)C(=O)N[C@@H](CCCCN)C(=O)N[C@@H](CC(C)C)C(=O)N[C@@H](CCC(N)=O)C(=O)N[C@H](C(=O)N[C@@H](Cc1ccc(O)cc1)C(=O)N1CCC[C@H]1C(=O)N[C@@H](CCCNC(=N)N)C(=O)N[C@H](C(=O)N[C@@H](CC(N)=O)C(=O)N[C@H](C(=O)NCC(=O)N[C@@H](CO)C(=O)NCC(=O)N[C@H](C(=O)N1CCC[C@H]1C(N)=O)[C@@H](C)O)[C@@H](C)O)[C@@H](C)O)[C@@H](C)O [Salmon Calcitonin]
- Papp A→B at 5 h, 5 µg/well [1, 5]: 2 ± 0.07 ×10⁻⁶ cm/s
- Papp A→B at 5 h, 24 µg/well [1, 6]: 1.5 ± 0.7 ×10⁻⁶ cm/s
- Total amount transported to the basolateral side (Caco-2 monolayers [2]; apical loading 5 µg/well): 55 ± 2 ng
- % Transport in 5 hours (Caco-2 monolayers [2]; [5]): 1.1±0.04%
- % Transport in 5 hours (Caco-2 monolayers [2]; [6]): 0.8±0.4%
- Total amount transported to the basolateral side (Caco-2 monolayers [2]; apical loading 24 µg/well): 192 ± 95 ng
- Permeability through rat jejunum (rat jejunum): 1.9±0.5 ×10^−6 cm/sec

Compound: CCN(CC)c1ccc2c(-c3ccc(S(=O)(=O)O)cc3S(=O)(=O)[O-])c3ccc(=[N+](CC)CC)cc-3oc2c1 [Sulforhodamine-B, sulforhodamine B]
- Apparent Permeability (Papp) (Caco-2 monolayers [3]; 3-day Caco-2 (BD Biocoat HTS, serum-free), apical-to-basolateral, apical loading 0.05 mg/well in 500 µl basal seeding medium, 30 min pre-conditioning, 5 h): 5.0±2.9 10^−6 cm/s
- % Transport in 5 hours (Caco-2 monolayers [3]; 3-day Caco-2, apical-to-basolateral, apical loading 0.05 mg/well, 5 h): 2.8±1.6%
- Cumulative amount transported to basolateral chamber (Caco-2 monolayers [3]; 3-day Caco-2, apical-to-basolateral, apical loading 0.05 mg/well): 0.002 ± 0.0008 mg
- Apparent Permeability (Papp) (Caco-2 monolayers [3]; 3-day Caco-2, apical-to-basolateral, apical loading 0.3 mg/well in 500 µl, 5 h): 5.3±0.8 10^−6 cm/s
- % Transport in 5 hours (Caco-2 monolayers [3]; 3-day Caco-2, apical-to-basolateral, apical loading 0.3 mg/well, 5 h): 2.9±0.4%
- Cumulative amount transported to basolateral chamber (Caco-2 monolayers [3]; 3-day Caco-2, apical-to-basolateral, apical loading 0.3 mg/well): 0.009 ± 0.001 mg
- Apparent Permeability (Papp) (Caco-2 monolayers [3]; 3-day Caco-2, apical-to-basolateral, apical loading 0.6 mg/well in 500 µl, 5 h): 4.0±0.6 10^−6 cm/s
- % Transport in 5 hours (Caco-2 monolayers [3]; 3-day Caco-2, apical-to-basolateral, apical loading 0.6 mg/well, 5 h): 2.3±0.4%
- Cumulative amount transported to basolateral chamber (Caco-2 monolayers [3]; 3-day Caco-2, apical-to-basolateral, apical loading 0.6 mg/well): 0.01 ± 0.002 mg
- Apparent Permeability (Papp) (Caco-2 monolayers [3]; 3-day Caco-2, apical-to-basolateral, apical loading […] in 500 µl, 5 h): 4.9±0.9 10^−6 cm/s
- Effect on Caco-2 monolayer integrity during transport (Caco-2 monolayers [3]; 3-day Caco-2, different loading concentrations, 5 h, TEER): without damaging the monolayer

Compound: FITC-Insulin: fluorescein isothiocynate conjugated bovine insulin (Sigma Aldrich)
- Apparent permeability coefficients (Papp), range over the loadings studied (Caco-2 monolayers [4]): 8.2±1.8-10.5±1.8
- Effect on Caco-2 monolayer integrity during transport (Caco-2 monolayers [4]): without damaging the monolayer
